# US12258561B2, “Compositions and methods to promote bone formation and their uses including for the treatment of cancer” (THE RESEARCH FOUNDATION FOR THE STATE UNIVERSITY OF NEW YORK, priority 2014, dated 2025)
# Key:
# MSC = assay: Assay of cell number (MTT) in MSC cultures; assay type: cell-based, human; details: 1-mM
# Experimental: (§1) Assay of Cell Number: Following the addition of 1-mM naloxone or 1-mM naltrexone, viable cell number was determined with the MTT assay. After 72-hours and 120-hours, MTT (5 mg/ml (w/v), Sigma) was added to each well, incubated for 2-hours, after which the cells lysed with 500-μl of DMSO (Sigma). MTT was measured at 570-nm and the effects of therapy on cell proliferation were determined by normalizing treated wells relative to mean values from non-treated wells: Fold change in cell number=100*[treated cells optical density/mean control optical density].
# [1] = system: RDES Ewing's sarcoma of bone tumor cells; assay: Assay of cell number (MTT), RDES cells; assay type: cell-based; details: 1-mM, seventy-two hours
# Text: (§2) Methods: Human bone marrow was collected from consenting adult patients undergoing either an elective primary proximal femoral total hip arthroplasty or elective primary distal femoral total knee arthroplasty (n=6, mean age 65) as a part of an IRB approved study. Human MSC were derived from the adherent fraction of whole bone marrow aspirates. Ewing's sarcoma tumor cells (RDES, Hs822 and Hs863) and SaOS2 osteosarcoma tumor cells were obtained from ATCC. Cells were maintained in Dulbecco's Modification of Eagle's Media (DMEM) containing 10% fetal calf serum (v/v) and 1% penicillin-streptomycin-glutamine (PSG; Cellgro, Mediatech).
# as §1
# [2] = system: MSC cultures induced to become osteoblasts; assay: Osteogenesis: mineral formation in MSC with osteoinduction media (alizarin red-S staining); assay type: cell-based, human
# Text: Methods: Human Bone Marrow was Collected from Consenting Adult Patients undergoing either an elective primary proximal femoral total hip arthroplasty or elective primary distal femoral total knee arthroplasty (n=6, mean age 65) as a part of an IRB approved study. Human MSC were derived from the adherent fraction of cells derived from each whole bone marrow aspirate collected, while the monocyte population was collected from the non-adherent fraction of the bone marrow. The monocyte fraction was enriched through sub-culture with 100-ng/mL recombinant human macrophage colony-stimulating factor (MCSF; Wyeth). In parallel experiments described below, the femurs from 3-week (n=10) and 16-week (n=20) old male mice were collected and then the bone marrow was flushed from the femur according to the following: A 21-gauge needle was inserted into the femoral intramedular canal after the removal of the proximal and distal ends of the femur. Media was then carefully passed through the proximal end of the femur, which forced the bone marrow to pass out of the bone. Finally, the bone marrow pellet was mechanically disassociated using an 18-gauge needle and then passed through a 70-μm mesh filter. These whole bone marrow aspirates were used to generate osteoclasts. Cells were maintained in Dulbecco's Modification of Eagle's Media (DMEM) containing 10% fetal calf serum (v/v) and 1% penicillin-streptomycin-glutamine (PSG; Cellgro, Mediatech). […] The responsible IACUC committee approved all of the animal studies described in this work.
# Osteogenesis: Osteogenic potential in MSC was assayed by chemically inducing mineral formation. MSC from at least three human patients were seeded at 5×10^3 cells per well and allowed to become confluent and woven prior to the addition of osteo-induction media. Induction media consisted of DMEM containing 20% FCS (v/v) and 1% PSG supplemented with 25-μg/mL of acscorbic-2-phosphate (Sigma), 100-nM dexamethasone (Sigma) and the following dosing regimen of β-glycerophosphate (BGP; Sigma): 1× media change with 5-mM BGP, 1× media change with 10-mM BGP and 1× media change with 20-mM of BGP. Met5-ligand (0-, [5-μM] 2.87-, or [50-μM] 28.7-μg; Sigma), naloxone (0-, 400-fg, 400-pg, 400-ng, 400-μg; Sigma) or naltrexone (0-, 378-fg, 378-pg, 378-ng, 378-μg; Sigma) was added as follows: 1) 1×, with the first addition of osteo-induction media, 2) 2×, with the first and second addition of osteo-induction media and 3) with each post-induction media change. […] After the appearance of mineral nodules, cells were fixed with 70% ice-cold EtOH (Sigma) and then stained using 40-mM alizarin red-S (pH 4.2, Sigma). Osteogenesis experiments were repeated at least twice for each patient.
# monocyte cultures = assay: Assay of cell number (MTT) in monocyte cultures; assay type: cell-based, human; details: naloxone added to monocyte cultures
# Text: Methods: Human Bone Marrow was Collected from Consenting Adult Patients undergoing either an elective primary proximal femoral total hip arthroplasty or elective primary distal femoral total knee arthroplasty (n=6, mean age 65) as a part of an IRB approved study. Human MSC were derived from the adherent fraction of cells derived from each whole bone marrow aspirate collected, while the monocyte population was collected from the non-adherent fraction of the bone marrow. The monocyte fraction was enriched through sub-culture with 100-ng/mL recombinant human macrophage colony-stimulating factor (MCSF; Wyeth). In parallel experiments described below, the femurs from 3-week (n=10) and 16-week (n=20) old male mice were collected and then the bone marrow was flushed from the femur according to the following: A 21-gauge needle was inserted into the femoral intramedular canal after the removal of the proximal and distal ends of the femur. […]
# as §1, with “After 72-hours and 120-hours, MTT (5 mg/ml (w/v), Sigma) was added to each well, incubated for 2-hours, after which the cells lysed with 500-μl of DMSO (Sigma).” left out
# [3] = system: Hs822t Ewing's sarcoma of bone tumor cells; assay: Assay of cell number (MTT), Hs822t cells; assay type: cell-based; details: 1-mM, seventy-two hours
# Text: as §2, §1
# [4] = system: posterolateral lumbar spine; assay: Rat posterolateral spinal fusion of L5-L6 vertebrae, microCT; assay type: in vivo, Sprague-Dawley rats; details: 2-months
# Text: Rat Posterolateral Spinal Fusion of L5-L6 Vertebrae: 20 male, […] skeletally mature Sprague-Dawley rats underwent bilateral lumbar posterolateral spinal fusion at the L5-L6 vertebrae. […] Under sterile conditions a 2-cm long posterior midline incision centered at L5-L6 vertebrae was made. A muscle-splitting approach was used, lateral to the facet joints, to expose the transverse processes of a particular vertebra. A high-speed 1-mm burr was used to decorticate the transverse processes of the L5-L6 vertebrae. Implants were prepared and implanted between the transverse processes bilaterally in the paraspinal muscle bed. […] Animals were euthanized 2-months (n=5 rats per time point per treatment group for a total of n=20 rats) spines were collected and prepared for micro-CT (μCT) analysis.
structure (smiles),measurement,setting,value
C=CCN1CC[C@]23c4c5ccc(O)c4O[C@H]2C(=O)CC[C@@]3(O)[C@H]1C5 [naloxone],MSC proliferation (cell number),MSC; 72-hours,"suppressed, but did not stop"
same,MSC proliferation (cell number),MSC; 120-hours,"suppressed, but did not stop"
same,RDES tumor cell number relative to control cultures,[1],decreased significantly
same,"mineral accumulation, effect against met5",[2]; 1-mM naloxone added with 5-μM or 50-μM met5 and osteoinduction media,abrogate the anti-osteogenic effects of met5
same,mineral accumulation (red staining),[2]; between 1-μM and 1-mM with osteoinduction media,substantially increased mineral accumulation
same,mineral accumulation,"[2]; continuous dosing, with every media change",slightly depressed
same,mineral accumulation,"[2]; double 'pulse' dose (2x), 1-mM, second 72-hours after the first",substantial increase in mineral accumulation
same,mineral accumulation,"[2]; single 'pulse' dose (1x), 1-mM",substantial increase in mineral accumulation
same,proliferation (cell number) in monocyte cultures,monocyte cultures,decreased proliferation
same,Hs822t tumor cell number relative to control cultures,[3],no effect
same,bone formation in the lumbar spine versus collagen implants alone,"[4]; collagen sponge implant, 25-ng BMP2 or 1-mM naloxone",increased bone formation over the collagen implants alone
same,Bv/Tv relative to spines implanted with collagen or the control sham surgery group,"[4]; naloxone infused collagen implant, 1-mM",substantial increase in By/Tv
